In ChEMBL document CHEMBL1201862, “PubChem BioAssay data set” (2004):
The source made the active and inactive calls.

Key:
Bcl-2-like protein 10 = target: T1, Bcl-2-like protein 10 (Homo sapiens, UniProt Q9HD36); assay: Bcl-B/TR3 peptide binding disruption – biochemical, fluorescence polarization, FITC-TR3 peptide, selectivity assay for Bfl-1 inhibitor project, primary screen (AID 748);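 also: fluorescence polarization from a fluorescein-labelled TR3 peptide binding purified Bcl-B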
T1 sequence (Q9HD36 whole entry): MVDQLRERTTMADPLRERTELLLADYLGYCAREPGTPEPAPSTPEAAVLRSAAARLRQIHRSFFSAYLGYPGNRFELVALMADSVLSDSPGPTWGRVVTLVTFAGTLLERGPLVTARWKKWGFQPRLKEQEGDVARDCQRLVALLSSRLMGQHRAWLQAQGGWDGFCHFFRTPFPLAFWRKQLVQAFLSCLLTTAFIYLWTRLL

14-3-3 protein gamma = 14-3-3 protein gamma (Homo sapiens, UniProt P61981); assay: modulators of 14-3-3 gamma client binding – dose response (AID 711); format: functional
Chain of 14-3-3 protein gamma (P61981 whole entry): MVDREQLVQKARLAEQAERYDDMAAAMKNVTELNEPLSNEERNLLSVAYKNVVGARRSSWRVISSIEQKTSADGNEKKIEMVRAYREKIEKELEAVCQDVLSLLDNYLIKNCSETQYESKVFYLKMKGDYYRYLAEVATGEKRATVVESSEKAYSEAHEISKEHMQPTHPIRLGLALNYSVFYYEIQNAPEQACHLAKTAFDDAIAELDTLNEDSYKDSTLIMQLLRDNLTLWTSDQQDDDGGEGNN

[1] = target: DNA dC->dU-editing enzyme APOBEC-3A (Homo sapiens, UniProt P31941); assay: Dose Response confirmation of small molecule APOBEC3A DNA Deaminase Inhibitors via a fluorescence-based single-stranded DNA deaminase assay. [Related pubchem assays (depositor defined):AID493011, AID493024]; format: functional
Chain of DNA dC->dU-editing enzyme APOBEC-3A (P31941 whole entry): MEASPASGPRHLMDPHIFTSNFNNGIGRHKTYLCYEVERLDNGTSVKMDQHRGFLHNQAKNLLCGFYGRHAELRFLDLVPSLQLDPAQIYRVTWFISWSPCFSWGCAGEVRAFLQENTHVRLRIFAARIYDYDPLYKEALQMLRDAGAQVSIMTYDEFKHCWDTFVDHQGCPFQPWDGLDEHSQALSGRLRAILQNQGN

[2] = target: DNA dC->dU-editing enzyme APOBEC-3G (Homo sapiens, UniProt Q9HC16); format: functional;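 also: Dose-response counterscreen measuring inhibition of APOBEC3G DNA deaminase activity, run while confirming APOBEC3A inhibitors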
Chain of DNA dC->dU-editing enzyme APOBEC-3G (Q9HC16 whole entry): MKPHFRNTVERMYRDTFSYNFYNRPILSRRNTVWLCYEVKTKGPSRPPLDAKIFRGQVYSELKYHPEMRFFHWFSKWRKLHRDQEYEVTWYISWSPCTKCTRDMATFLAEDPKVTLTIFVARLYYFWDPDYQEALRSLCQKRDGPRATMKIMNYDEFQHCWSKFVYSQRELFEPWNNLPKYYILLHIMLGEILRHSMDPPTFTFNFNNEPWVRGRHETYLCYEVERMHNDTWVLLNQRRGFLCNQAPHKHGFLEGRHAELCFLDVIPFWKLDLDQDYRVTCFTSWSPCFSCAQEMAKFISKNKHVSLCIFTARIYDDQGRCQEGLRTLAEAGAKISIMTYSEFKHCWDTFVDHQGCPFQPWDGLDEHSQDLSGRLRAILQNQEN

[3] = target: Muscarinic acetylcholine receptor M1 (Rattus norvegicus, UniProt P08482); assay: concentration-dependent potentiation of ACh at M1 – cell-based, calcium mobilization, CHO-K1, ACh EC20, dose response (AID 2425); format: functional
Chain of Muscarinic acetylcholine receptor M1 (P08482 whole entry): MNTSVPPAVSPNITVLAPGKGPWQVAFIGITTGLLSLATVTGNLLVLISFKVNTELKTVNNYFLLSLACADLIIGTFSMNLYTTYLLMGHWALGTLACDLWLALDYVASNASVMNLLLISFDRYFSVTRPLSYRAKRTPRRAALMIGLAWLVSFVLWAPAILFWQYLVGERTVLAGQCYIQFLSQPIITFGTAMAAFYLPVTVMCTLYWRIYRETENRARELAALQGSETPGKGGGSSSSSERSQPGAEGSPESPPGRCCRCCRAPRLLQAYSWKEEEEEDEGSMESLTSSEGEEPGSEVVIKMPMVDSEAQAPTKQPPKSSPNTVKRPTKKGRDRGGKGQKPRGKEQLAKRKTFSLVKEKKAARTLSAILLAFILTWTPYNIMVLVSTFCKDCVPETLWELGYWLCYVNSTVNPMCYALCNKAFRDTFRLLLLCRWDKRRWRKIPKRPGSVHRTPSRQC

[4] = viability of PTEN-deleted HCT116 cells – cell-based, HCT116 PTEN knockout, dose response (AID 1047); format: functional;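 also: HCT116 colon tumor cells with PTEN knocked out; cells exposed to compound for 60 hours before readout; potency for loss of cell viability measured by luminescence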
[5] = viability of HCT116 lacking mutant beta-catenin – cell-based, human colon tumor, dose response (AID 1045); format: functional;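 also: HCT116 colon tumor cells with beta catenin knocked out; cells exposed to compound for 60 hours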
Estrogen receptor = target: T2, Estrogen receptor (Homo sapiens, UniProt P03372);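 also: potency for inhibiting coactivator peptide recruitment to the receptor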
T2 sequence (P03372 whole entry): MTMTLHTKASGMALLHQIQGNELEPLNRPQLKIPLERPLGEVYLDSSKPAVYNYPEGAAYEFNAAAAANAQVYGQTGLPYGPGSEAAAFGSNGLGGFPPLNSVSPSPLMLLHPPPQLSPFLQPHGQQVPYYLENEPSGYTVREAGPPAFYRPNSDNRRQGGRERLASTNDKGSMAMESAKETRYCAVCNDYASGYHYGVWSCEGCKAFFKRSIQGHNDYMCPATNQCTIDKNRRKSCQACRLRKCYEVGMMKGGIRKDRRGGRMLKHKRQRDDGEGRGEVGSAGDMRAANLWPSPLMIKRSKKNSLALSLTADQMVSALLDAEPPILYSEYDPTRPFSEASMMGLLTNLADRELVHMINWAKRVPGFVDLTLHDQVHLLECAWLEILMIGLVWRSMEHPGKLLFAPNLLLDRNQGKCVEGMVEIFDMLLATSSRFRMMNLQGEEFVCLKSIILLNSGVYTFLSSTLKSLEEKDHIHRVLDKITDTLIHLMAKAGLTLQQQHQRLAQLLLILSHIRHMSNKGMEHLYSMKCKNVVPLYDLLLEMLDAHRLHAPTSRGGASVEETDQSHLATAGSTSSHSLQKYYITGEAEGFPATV

Estrogen receptor beta [6] = target: T3, Estrogen receptor beta (Homo sapiens, UniProt Q92731);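 also: recombinant ER-beta bound to coactivator SRC1 peptide in presence of estradiol agonist; inhibitors block coactivator peptide binding and lower the FRET signal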
T3 sequence (Q92731 whole entry): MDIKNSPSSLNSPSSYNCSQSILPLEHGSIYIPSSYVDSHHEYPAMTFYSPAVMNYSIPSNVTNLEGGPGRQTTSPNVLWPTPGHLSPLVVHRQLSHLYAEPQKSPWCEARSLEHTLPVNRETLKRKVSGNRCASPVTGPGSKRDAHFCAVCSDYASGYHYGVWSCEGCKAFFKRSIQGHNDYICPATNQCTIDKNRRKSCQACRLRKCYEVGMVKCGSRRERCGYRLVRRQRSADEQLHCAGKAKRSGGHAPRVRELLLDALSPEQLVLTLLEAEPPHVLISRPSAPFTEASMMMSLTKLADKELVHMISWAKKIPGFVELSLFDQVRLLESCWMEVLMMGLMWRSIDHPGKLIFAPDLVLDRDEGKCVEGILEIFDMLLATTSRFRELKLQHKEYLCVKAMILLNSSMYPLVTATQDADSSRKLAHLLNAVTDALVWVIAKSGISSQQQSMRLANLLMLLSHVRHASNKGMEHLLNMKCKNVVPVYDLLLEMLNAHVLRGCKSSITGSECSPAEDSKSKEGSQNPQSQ

Estrogen receptor beta [7] = target: T3, Estrogen receptor beta; assay: blockers of SRC-3 recruitment to ERβ – biochemical, ELISA, streptavidin-HRP readout, orthogonal assay, confirmation (AID 1060)
[8] = target: T4, Carboxy-terminal domain RNA polymerase II polypeptide A small phosphatase 1 (Homo sapiens, UniProt Q9GZU7); assay: CTDSP1 inhibitors, concentration-response, biochemical, absorbance readout, ultra-high-throughput screen actives (AID 540297); format: functional
T4 sequence (Q9GZU7 whole entry): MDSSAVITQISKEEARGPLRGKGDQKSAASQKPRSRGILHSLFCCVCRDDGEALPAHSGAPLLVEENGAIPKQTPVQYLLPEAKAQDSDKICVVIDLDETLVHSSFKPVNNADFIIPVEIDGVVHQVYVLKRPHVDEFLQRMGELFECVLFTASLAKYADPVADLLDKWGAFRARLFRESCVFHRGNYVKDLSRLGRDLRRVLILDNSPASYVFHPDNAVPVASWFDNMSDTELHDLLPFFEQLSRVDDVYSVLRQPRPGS

[9] = target: E3 ubiquitin-protein ligase UHRF1 (Homo sapiens, UniProt Q96T88); assay: Counterscreen for inhibitors of 5-meCpG-binding domain protein 2 (MBD2): TRFRET-based biochemical high throughput dose response assay to identify inhibitors of binding of ubiquitin-like with PHD and ring finger domains 1 (UHRF1) to methylated oligonucleotide.
Chain of E3 ubiquitin-protein ligase UHRF1 (Q96T88 whole entry, the tested form may be a part): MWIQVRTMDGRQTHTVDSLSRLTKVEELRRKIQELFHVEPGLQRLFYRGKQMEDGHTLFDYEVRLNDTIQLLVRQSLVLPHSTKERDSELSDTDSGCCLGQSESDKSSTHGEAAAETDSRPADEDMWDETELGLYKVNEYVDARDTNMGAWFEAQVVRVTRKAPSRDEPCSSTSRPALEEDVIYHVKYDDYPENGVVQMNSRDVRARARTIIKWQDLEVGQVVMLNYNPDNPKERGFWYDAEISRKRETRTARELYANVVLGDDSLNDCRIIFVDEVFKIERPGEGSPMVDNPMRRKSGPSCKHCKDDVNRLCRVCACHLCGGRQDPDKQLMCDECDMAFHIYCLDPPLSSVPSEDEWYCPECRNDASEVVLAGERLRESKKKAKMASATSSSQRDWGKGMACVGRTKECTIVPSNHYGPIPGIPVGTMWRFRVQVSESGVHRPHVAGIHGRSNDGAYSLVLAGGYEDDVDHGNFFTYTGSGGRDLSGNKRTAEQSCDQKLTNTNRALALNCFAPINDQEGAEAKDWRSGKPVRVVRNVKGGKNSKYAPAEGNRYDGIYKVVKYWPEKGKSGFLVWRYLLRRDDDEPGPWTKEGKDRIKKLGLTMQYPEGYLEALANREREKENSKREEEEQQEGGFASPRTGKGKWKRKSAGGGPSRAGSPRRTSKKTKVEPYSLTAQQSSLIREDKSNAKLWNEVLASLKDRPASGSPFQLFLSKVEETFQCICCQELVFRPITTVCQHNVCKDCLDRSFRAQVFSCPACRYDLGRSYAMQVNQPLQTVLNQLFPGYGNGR

[10] = target: T5, Potassium channel subfamily K member 9 (Homo sapiens, UniProt Q9NPC2); assay: TASK3 channel blockers, electrophysiology – cell-based, automated electrophysiology, selectivity assay for TASK1 (KCNK3) inhibitor project, SAR follow-up (AID 652210); format: functional
T5 sequence (Q9NPC2 whole entry): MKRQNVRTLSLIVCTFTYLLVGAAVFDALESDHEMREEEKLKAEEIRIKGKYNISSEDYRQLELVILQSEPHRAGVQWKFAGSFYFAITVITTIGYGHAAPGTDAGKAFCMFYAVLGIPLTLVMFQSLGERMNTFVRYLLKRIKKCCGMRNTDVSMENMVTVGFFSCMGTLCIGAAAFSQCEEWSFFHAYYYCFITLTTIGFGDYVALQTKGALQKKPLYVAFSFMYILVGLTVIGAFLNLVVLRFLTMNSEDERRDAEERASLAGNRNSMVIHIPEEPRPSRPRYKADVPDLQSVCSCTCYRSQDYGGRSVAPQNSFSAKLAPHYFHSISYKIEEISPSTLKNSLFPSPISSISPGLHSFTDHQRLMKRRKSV

[11] = target: T5, Potassium channel subfamily K member 9; assay: KCNK9 flux blockade, concentration-response – cell-based, FluxOR thallium flux, selectivity assay for TASK1 inhibitor project, SAR follow-up (AID 652211); format: functional;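 also: potency is for inhibitors of the channel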
[12] = target: Potassium channel subfamily K member 3 (Rattus norvegicus, UniProt O54912); assay: SAR analysis for the identification of selective inhibitors of the two-pore domain potassium channel TASK1(KCNK3):Automated Electrophysiology.; format: functional
Chain of Potassium channel subfamily K member 3 (Rattus norvegicus, UniProt O54912) (O54912 whole entry, the tested form may be a part): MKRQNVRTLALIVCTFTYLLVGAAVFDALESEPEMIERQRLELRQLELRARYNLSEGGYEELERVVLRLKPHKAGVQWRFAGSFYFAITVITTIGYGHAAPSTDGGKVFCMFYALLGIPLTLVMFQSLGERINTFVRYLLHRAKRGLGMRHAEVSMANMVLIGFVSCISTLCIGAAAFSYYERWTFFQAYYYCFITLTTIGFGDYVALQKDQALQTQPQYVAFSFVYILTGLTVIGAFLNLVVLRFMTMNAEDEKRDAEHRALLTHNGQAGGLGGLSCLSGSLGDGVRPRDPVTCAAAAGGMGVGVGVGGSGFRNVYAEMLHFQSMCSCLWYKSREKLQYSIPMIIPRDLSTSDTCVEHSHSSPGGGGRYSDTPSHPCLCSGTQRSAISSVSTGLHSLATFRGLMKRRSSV

[13] = target: Potassium channel subfamily K member 3 (Homo sapiens, UniProt O14649); assay: inhibition of human KCNK3 channel flux – CHO cells, FluxOR thallium flux, SAR follow-up (AID 652212); format: functional
Chain of Potassium channel subfamily K member 3 (Homo sapiens, UniProt O14649) (O14649 whole entry): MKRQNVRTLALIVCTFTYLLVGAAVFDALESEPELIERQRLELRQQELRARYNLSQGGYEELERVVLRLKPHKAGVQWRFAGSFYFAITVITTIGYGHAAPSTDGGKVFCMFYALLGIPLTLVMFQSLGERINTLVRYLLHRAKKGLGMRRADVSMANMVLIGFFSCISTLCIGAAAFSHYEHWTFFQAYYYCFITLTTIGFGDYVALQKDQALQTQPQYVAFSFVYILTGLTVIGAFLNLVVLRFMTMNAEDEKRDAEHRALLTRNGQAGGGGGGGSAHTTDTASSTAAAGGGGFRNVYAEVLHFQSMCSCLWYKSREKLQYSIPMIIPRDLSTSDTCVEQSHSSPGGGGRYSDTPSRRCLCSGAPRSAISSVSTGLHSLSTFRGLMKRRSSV

[14] = Luminescence Cell-Based Dose Confirmation HTS to Identify Activators of 5'UTR Stem-Loop Driven Alpha-Synuclein mRNA Translation in H4 Neuroglioblastoma Cells. [Related pubchem assays: 1829 (Project Summary), 1814 (Primary HTS)]; format: functional
[15] = Luminescence Cell-Based Dose Response HTS to Identify Activators of Luciferase Translation or Activity in H4 […] Cells. [Related pubchem assays: 1829 (Project Summary), 1814 (Primary HTS)]; format: functional
H4 = assay: Luminescence Cell-Based Dose Response HTS to Identify Activators of 5'UTR Stem-Loop Driven Prion Protein mRNA Translation in H4 Neuroglioblastoma Cells. [Related pubchem assays: 1829 (Project Summary), 1814 (Primary HTS)]; format: functional; conditions: Homo sapiens
[16] = target: Mitogen-activated protein kinase 10 (Homo sapiens, UniProt P53779); assay: Dose response biochemical screening assay for inhibitors of c-Jun N-Terminal Kinase 3 (JNK3). [Related pubchem assays: 746 ]
Chain of Mitogen-activated protein kinase 10 (P53779 whole entry): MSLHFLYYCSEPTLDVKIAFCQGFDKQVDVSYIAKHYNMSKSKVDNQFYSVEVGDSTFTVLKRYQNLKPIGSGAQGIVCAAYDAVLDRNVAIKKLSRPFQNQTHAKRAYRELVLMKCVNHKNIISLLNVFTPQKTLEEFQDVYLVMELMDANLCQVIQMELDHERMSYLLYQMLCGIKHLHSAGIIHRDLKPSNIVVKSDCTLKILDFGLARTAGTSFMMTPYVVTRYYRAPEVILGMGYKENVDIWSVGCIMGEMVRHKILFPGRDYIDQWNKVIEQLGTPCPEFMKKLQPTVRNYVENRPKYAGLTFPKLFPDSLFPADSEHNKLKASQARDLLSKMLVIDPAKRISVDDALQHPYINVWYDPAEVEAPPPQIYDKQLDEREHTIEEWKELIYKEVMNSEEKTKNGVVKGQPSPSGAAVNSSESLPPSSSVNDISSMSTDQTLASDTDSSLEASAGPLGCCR

[17] = target: RNA-editing ligase 1, mitochondrial (Trypanosoma brucei brucei, UniProt P86926); assay: inhibition of trypanosome RNA editing ligase – biochemical, fluorescence, Trypanosoma brucei, dose response (AID 1117295); format: functional
Chain of RNA-editing ligase 1, mitochondrial (P86926 whole entry): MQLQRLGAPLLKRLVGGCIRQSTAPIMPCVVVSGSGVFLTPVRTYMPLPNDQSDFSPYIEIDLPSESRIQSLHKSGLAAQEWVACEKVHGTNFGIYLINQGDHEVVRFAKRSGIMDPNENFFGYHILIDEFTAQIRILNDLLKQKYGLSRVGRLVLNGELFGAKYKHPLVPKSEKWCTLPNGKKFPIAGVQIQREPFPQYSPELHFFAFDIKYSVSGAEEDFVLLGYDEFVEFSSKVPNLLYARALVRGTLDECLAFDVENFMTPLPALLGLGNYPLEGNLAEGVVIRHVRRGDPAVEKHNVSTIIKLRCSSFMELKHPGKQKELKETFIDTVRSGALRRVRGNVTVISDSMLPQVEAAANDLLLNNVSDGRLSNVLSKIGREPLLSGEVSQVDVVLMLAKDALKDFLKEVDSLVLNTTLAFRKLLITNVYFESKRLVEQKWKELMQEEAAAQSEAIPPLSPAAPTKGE

Cc1nc2ccc(C(=O)O)cc2c2c1CC(C)S2 (stereo unspecified)
IC50 (Bcl-2-like protein 10): > 100 µM (inactive) | IC50 (14-3-3 protein gamma): 25.7 µM (active) | IC50 [1]: 16.2 µM (active) | IC50 [2]: 26.3 µM (active)

Cc1cc(NC(=O)CS(=O)(=O)c2cn(Cc3ccccc3Cl)c3ccccc23)no1
EC50 [3]: 9.13 µM (active) | EC50 [4]: 41.3 µM (active) | EC50 [5]: 72.8 µM (active)

O=C(Cc1coc2cc3c(cc12)CCC3)OCc1cc(=O)n2c(n1)sc1ccccc12
IC50 (Estrogen receptor): 4.83 µM (active) | IC50 (Estrogen receptor beta [6]): 3.05 µM (active) | IC50 (Estrogen receptor beta [7]): 17.6 µM (not active) | IC50 [8]: 4.58 µM (active) | IC50 [9]: > 43.8 µM (inactive)

CCOc1ccccc1NC(=O)c1cccc(NC(=O)CC2CCCC2)c1
IC50 [10]: 3.9 µM (active) | IC50 [11]: 4.17 µM (active) | IC50 [12]: 0.32 µM (active) | IC50 [13]: 0.161 µM (active)

CC1=CC(=C2C(=O)c3ccccc3C2=O)C=C(C)N1C
EC50 [14]: 53.3 µM (active) | EC50 [15]: 29.3 µM (active) | EC50 (H4): 57.2 µM (active) | IC50 [16]: 42.1 µM (not active)

COC(=O)C1=C(C)N(Cc2ccc(C(F)(F)F)cc2)C(NCc2ccc(C(F)(F)F)cc2)=NC1c1ccccc1C(F)(F)F (stereo unspecified)
IC50 [17]: > 96.6 µM (inactive)
